Assay results reported in patent publication US20050245399A1, “Pyrazole derivatives as herbicidal compositions containing them” (ISHIHARA SANGYO KAISHA, LTD., priority 2004, published 2005).

Experiments:
Type in all cases: in vivo
[1] = system: barnyardgrass (Echinochloa crus-galli L.): ECHCG; test: Test Example 1 pre-emergence herbicidal activity, ECHCG; settings: visually observed 20th to 23rd day after application
Method in brief: (§1)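 pots, upland field soil; sow; +1 d spray compound (WP or EC, a.i. at set dose, 500 L/ha water), pre-emergence; visual % growth control d20–23 (0 untreated, 100 complete kill).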

[2] = system: crabgrass (Digitaria sanguinalis L.): DIGSA; test: Test Example 1 pre-emergence herbicidal activity, DIGSA; settings: visually observed 20th to 23rd day after application
Method in brief: as §1

[3] = system: green foxtail (Setaria viridis L.): SETVI; test: Test Example 1 pre-emergence herbicidal activity, SETVI; settings: visually observed 20th to 23rd day after application
Method in brief: as §1

[4] = system: redroot pigweed (Amaranthus retroflexus L.): AMARE; test: Test Example 1 pre-emergence herbicidal activity, AMARE; settings: visually observed 20th to 23rd day after application
Method in brief: as §1

[5] = system: prickly sida (Sida spinosa L.): SEDSP; test: Test Example 1 pre-emergence herbicidal activity, SIDSP; settings: visually observed 20th to 23rd day after application
Method in brief: as §1

[6] = system: velvetleaf (Abutilon theophrasti): ABUTH; test: Test Example 1 pre-emergence herbicidal activity, ABUTH; settings: visually observed 20th to 23rd day after application
Method in brief: as §1

[7] = system: rice (Oryza sativa L.): ORYSA; test: Test Example 1 pre-emergence herbicidal activity, ORYSA; settings: visually observed 20th to 23rd day after application
Method in brief: as §1

[8] = system: wheat (Triticum aestivum L.): TRZAX; test: Test Example 1 pre-emergence herbicidal activity, TRZAX; settings: visually observed 20th to 23rd day after application
Method in brief: as §1

[9] = system: corn (Zea mays L.): ZEAMX; test: Test Example 1 pre-emergence herbicidal activity, ZEAMX; settings: visually observed 20th to 23rd day after application
Method in brief: as §1

[10] = system: soybean (Glycine max Merr.): GLXMA; test: Test Example 1 pre-emergence herbicidal activity, GLXMA; settings: visually observed 20th to 23rd day after application
Method in brief: as §1

[11] = system: barnyardgrass (Echinochloa crus-galli L.), ECHCG; test: Test Example 2 post-emergence (foliage treatment) herbicidal activity, ECHCG; settings: 63 g a.i./ha
Method in brief: (§2)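 Herbicide was applied to foliage of seedlings raised in upland field soil: redroot pigweed at 0.1-1.5 leaves, barnyardgrass at 1.1-2.1, crabgrass at 1.0-2.0, rice at 1.0-2. A predetermined active ingredient amount was carried in 500 L/ha water with 0.1% (v/v) spreader; control (%) was assessed by eye after 20-23 days.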

[12] = system: crabgrass (Digitaria sanguinalis L.), DIGSA; test: Test Example 2 post-emergence (foliage treatment) herbicidal activity, DIGSA; settings: 63 g a.i./ha
Method in brief: as §2

[13] = system: green foxtail (Setaria viridis L.), SETVI; test: Test Example 2 post-emergence (foliage treatment) herbicidal activity, SETVI; settings: 63 g a.i./ha
Method in brief: (§3)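 Each species was evaluated for growth suppression by eye, 0% matching untreated and 100% meaning death, some 20 to 23 days after a single post-emergence foliar treatment applied in 500 L/ha of water carrying 0.1% (v/v) agricultural spreader.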

[14] = system: redroot pigweed (Amaranthus retroflexus L.), AMARE; test: Test Example 2 post-emergence (foliage treatment) herbicidal activity, AMARE; settings: 63 g a.i./ha
Method in brief: as §2

[15] = system: prickly sida (Sida spinosa L.), SIDSP; test: Test Example 2 post-emergence (foliage treatment) herbicidal activity, SIDSP; settings: 63 g a.i./ha
Method in brief: as §3

[16] = system: velvetleaf (Abutilon theophrasti), ABUTH; test: Test Example 2 post-emergence (foliage treatment) herbicidal activity, ABUTH; settings: 63 g a.i./ha
Method in brief: as §3

[17] = system: rice (Oryza sativa L.), ORYSA; test: Test Example 2 post-emergence (foliage treatment) herbicidal activity, ORYSA; settings: 63 g a.i./ha
Method in brief: as §2

[18] = system: wheat (Triticum aestivum L.), TRZAX; test: Test Example 2 post-emergence (foliage treatment) herbicidal activity, TRZAX; settings: 63 g a.i./ha
Method in brief: as §3

[19] = system: corn (Zea mays L.), ZEAMX; test: Test Example 2 post-emergence (foliage treatment) herbicidal activity, ZEAMX; settings: 63 g a.i./ha
Method in brief: as §3

[20] = system: soybean (Glycine max Merr.), GLXMA; test: Test Example 2 post-emergence (foliage treatment) herbicidal activity, GLXMA; settings: 63 g a.i./ha
Method in brief: as §3

[21] = system: barnyardgrass (Echinochiloa oryzicola: ECHOR); test: Test Example 3 water application herbicidal activity (paddy), ECHOR; settings: 63 g a.i./ha, water application under submerged condition at 0.5 leaf stage, visually observed 14th day after application; 0 = untreated control, 100 = complete kill
Method in brief: (§4)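 Compound, as diluted wettable powder or emulsifiable concentrate, was pipetted into flood water at a set active-ingredient dose. Weeds were treated at 0.5-leaf stage after sowing or tuber planting; 2-leaf rice 4 days post-transplant. Control scored visually, 0 untreated to 100 complete kill, weeds day 14, rice day 21.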

[22] = system: japanese bulrush (Scirpus juncoides: SCPJO); test: Test Example 3 water application herbicidal activity (paddy), SCPJO; settings: 63 g a.i./ha, water application under submerged condition at 0.5 leaf stage, visually observed 14th day after application; 0 = untreated control, 100 = complete kill
Method in brief: as §4

[23] = system: japanese ribbon wapato (Sagittaria pygmaea: SA GPY); test: Test Example 3 water application herbicidal activity (paddy), SAGPY; settings: 63 g a.i./ha, water application under submerged condition, tubers planted, visually observed 14th day after application; 0 = untreated control, 100 = complete kill
Method in brief: as §4

[24] = system: rice (Oryza sativa L.: ORYSA); test: Test Example 3 water application herbicidal activity (paddy), transplanted rice ORYSA; settings: 63 g a.i./ha, water application 4th day after transplantation of 2 leaf stage rice, visually observed 21st day after application; 0 = untreated control, 100 = complete kill
Method in brief: as §4

SMILES | growth controlling degree, ECHCO [11] | growth controlling degree, DIGSP [12] | growth controlling degree, SETVI [13] | growth controlling degree, AMARE [14] | growth controlling degree, SIDSP [15] | growth controlling degree, ABUTH [16] | growth controlling degree, ORYSA [17] | growth controlling degree, TRZAX [18] | growth controlling degree, ZEAMX [19] | growth controlling degree, GLXMA [20] | growth controlling degrees (%) ECHOR [21] | growth controlling degrees (%) SCPJO [22] | growth controlling degrees (%) SAGPY [23] | growth controlling degrees (%) ORYSA [24] | Pre-emergence Herbicidal Activity ECHCG (growth controlling degree) ([1]; Rate 63 g a.i./ha) | Pre-emergence Herbicidal Activity DIGSP (growth controlling degree) ([2]; Rate 63 g a.i./ha) | Pre-emergence Herbicidal Activity SETVI (growth controlling degree) ([3]; Rate 63 g a.i./ha) | Pre-emergence Herbicidal Activity AMARE (growth controlling degree) ([4]; Rate 63 g a.i./ha) | Pre-emergence Herbicidal Activity SIDSP (growth controlling degree) ([5]; Rate 63 g a.i./ha) | Pre-emergence Herbicidal Activity ABUTH (growth controlling degree) ([6]; Rate 63 g a.i./ha) | also measured
COC(=O)CN(C=O)c1c(OC)c(Cl)cc(F)c1-c1nn(C)c(OC(F)F)c1Cl [Compound 1-20] | 10% | 20% | 70% | 100% | 90% | 60% | 50% | 10% | 40% | 50% | 90% | 20% | 0% | 30% | – | – | – | – | – | – | Pre-emergence Herbicidal Activity ECHCG (growth controlling degree) ([1]; Rate 125 g a.i./ha): 10%; Pre-emergence Herbicidal Activity DIGSP (growth controlling degree) ([2]; Rate 125 g a.i./ha): 30%; Pre-emergence Herbicidal Activity SETVI (growth controlling degree) ([3]; Rate 125 g a.i./ha): 10%; Pre-emergence Herbicidal Activity AMARE (growth controlling degree) ([4]; Rate 125 g a.i./ha): 100%; Pre-emergence Herbicidal Activity SIDSP (growth controlling degree) ([5]; Rate 125 g a.i./ha): 98%; Pre-emergence Herbicidal Activity ABUTH (growth controlling degree) ([6]; Rate 125 g a.i./ha): 80%; Pre-emergence Herbicidal Activity ORYSA (growth controlling degree) ([7]; Rate 125 g a.i./ha): 0%; Pre-emergence Herbicidal Activity TRZAX (growth controlling degree) ([8]; Rate 125 g a.i./ha): 0%; Pre-emergence Herbicidal Activity ZEAMX (growth controlling degree) ([9]; Rate 125 g a.i./ha): 0%; Pre-emergence Herbicidal Activity GLXMA (growth controlling degree) ([10]; Rate 125 g a.i./ha): 10%
C#CCN(C=O)c1c(OC(F)F)c(Cl)cc(F)c1-c1nn(C)c(OC(F)F)c1Cl [Compound 1-85] | 80% | 80% | 100% | 100% | 95% | 100% | 60% | 40% | 40% | 60% | 100% | 60% | 70% | 70% | 60% | 100% | 70% | 100% | 70% | 30% | Pre-emergence Herbicidal Activity ORYSA (growth controlling degree) ([7]; Rate 63 g a.i./ha): 10%; Pre-emergence Herbicidal Activity TRZAX (growth controlling degree) ([8]; Rate 63 g a.i./ha): 0%; Pre-emergence Herbicidal Activity ZEAMX (growth controlling degree) ([9]; Rate 63 g a.i./ha): 10%; Pre-emergence Herbicidal Activity GLXMA (growth controlling degree) ([10]; Rate 63 g a.i./ha): 0%
Cn1nc(-c2c(F)cc(Cl)c(OC(F)F)c2NC(=O)C(F)(F)F)c(Cl)c1OC(F)F [Compound 1-83] | 100% | 100% | 100% | 100% | 100% | 100% | 50% | 10% | 80% | 60% | 100% | 95% | 80% | 50% | 90% | 100% | 100% | 100% | 100% | 80% | Pre-emergence Herbicidal Activity ORYSA (growth controlling degree) ([7]; Rate 63 g a.i./ha): 60%; Pre-emergence Herbicidal Activity TRZAX (growth controlling degree) ([8]; Rate 63 g a.i./ha): 10%; Pre-emergence Herbicidal Activity ZEAMX (growth controlling degree) ([9]; Rate 63 g a.i./ha): 20%; Pre-emergence Herbicidal Activity GLXMA (growth controlling degree) ([10]; Rate 63 g a.i./ha): 60%
COc1c(Cl)cc(F)c(-c2nn(C)c(OC(F)F)c2Cl)c1NC(=O)COc1ccc(Cl)cc1 [Compound 1-35] | 80% | 70% | 95% | 100% | 100% | 100% | 60% | 40% | 60% | 80% | 100% | 70% | 60% | 30% | 20% | 50% | 80% | 100% | 20% | 20% | Pre-emergence Herbicidal Activity ORYSA (growth controlling degree) ([7]; Rate 63 g a.i./ha): 40%; Pre-emergence Herbicidal Activity TRZAX (growth controlling degree) ([8]; Rate 63 g a.i./ha): 20%; Pre-emergence Herbicidal Activity ZEAMX (growth controlling degree) ([9]; Rate 63 g a.i./ha): 0%; Pre-emergence Herbicidal Activity GLXMA (growth controlling degree) ([10]; Rate 63 g a.i./ha): 0%
